Test results taken from patent US5272141A, “Contraceptive and menstrual cycle controlling drug having oncostatic therapeutic properties for treatment of mammary tumors and melanomas, and method therefor” (priority 1990, dated 1993).
Entries after “also recorded” stand apart in the source; their conditions may differ. Where two headings read alike, the source gives them in different places.

What was measured:
[1] = test system: estrogen receptor; test: Estrogen receptor number in MCF-7; assay type: cell-based, human
[2] = test system: normal tissues; test: Binding in normal tissues
[3] = test system: neoplastic tissues; test: Binding in neoplastic tissues; conditions: compared with normal tissues
[4] = test system: tumors; test: Long term treatment: arrest and partial regression of tumors in human; assay type: in vivo; conditions: in some cases
[5] = Hematic, biochemical, electrophoretic, organ, bone marrow and histological toxicity tests; conditions: in vivo
From the text: The haematochemical, electrophoretic tests, and the tests for determining the status and weight of organs, bone marrow, and the hystological tests have not shown any particular toxicity and, based on these observations, which show the low toxicity of the individual compounds and associations, a favourable opinion has been released about the starting of the clinical experimentation.

[6] = Acute toxicity in rats; conditions: rat, in vivo; for LD50: po, per os, read-out: DL50 (the source's name)
Method: (§1) In the specific case of melatonin, acute
1) Rats, intraperitoneally
2) Rats, per os DL50 = greater than
(§2) (observation period 14 days)
the symbol DL50 means the amount of material which kills 50% of the
(§3) With respect to the toxicity of 2-iodomelatonin and 2-bromomelatonin, the acute toxicity tests have been carried out:
1) in rats per os: DL50 greater than 200 mg/Kg

[7] = in vivo; parameters: species or system rabbits; conditions: rabbit, iv
From the text: as §1
3) rabbits, intravenously
as §2
(§4) the symbol DL50 means the amount of material which kills 50% of the […]

[8] = Sub-acute toxicity in rats; conditions: rat, in vivo, sc, subcutaneously, observation period 25 days, read-out: DL50
From the text: and the sub-acute toxicity in:
(observation period 25 days).
as §4

[9] = test system: human contraception; conditions: comparatively high doses; cited from earlier work
[10] = test system: stimulated dopamine release in the retina; conditions: cited from earlier work
[11] = test system: preventing undesired pregnancies; conditions: cited from earlier work
[12] = test system: female patients; test: Clinical experimentation of associations used as contraceptives in eighty two female patients; assay type: in vivo, human; conditions: doses lower than those of melatonin
Method: With respect to the clinic experimentation, preliminary tests has been carried out on eighty two female patients, having an age between 18 and 46 years, with the following associations of the disclosed substances:
a) melatonin and norethisterone with doses per day of respectively 100-200 mg and 0.30-0.50 mg:
b) melatonin and 1-norgestrel with doses per day of respectively 100-200 mg and 0.08-0.16 mg;
c) 2-iodomelationin and norethisterone with doses per day of respectively 20-40 mg and 0.30-0.50 mg; mg;
d) 2-iodomelatonin and norgestrel with doses per day of respectively 20-40 mg and 0.35-0.80 mg;
e) 2-iodomelatonin and 1-norgestrel with doses per day of respectively 20-40 mg and 0.08-0.16 mg;
f) 2-bromomelatonin and norethisterone with doses per day of respectively 25-50 mg and 0.30-0.50 mg;
g) 2-bromomelatonin and norgestrel with doses per day of respectively 20-40 mg and 0.35-0.80.
h) 2-bomromelatonin and 1-norgestrel with doses pro die of respectively 20-40 mg and 0.08-0.16 mg.

[13] = Biological activity in vivo and in vitro in respect to melatonin; conditions: both in vivo and in vitro
[14] = test system: ovarian cell line SK-OV-3; test: Growth inhibition of ovarian cell line SK-OV-3; assay type: cell-based, human; conditions: in vitro
[15] = test system: ovarian cell line JA; test: Growth inhibition of ovarian cell line JA; assay type: cell-based, human; conditions: in vitro
[16] = test system: bladder carcinoma RT-112; test: Growth inhibition of bladder carcinoma RT-112; assay type: cell-based, human; conditions: in vitro
[17] = test system: mammary carcinoma MCF-7 cells; test: Growth inhibition of mammary carcinoma MCF-7 cells; assay type: cell-based, human; conditions: in vitro
[18] = test system: primary cultures of metastatic nodules of a human malignant melanoma; test: Growth inhibition in primary cultures of metastatic nodules of a human malignant melanoma; assay type: cell-based; conditions: in vitro
From the text: (§5) In our studies and experiments we have obtained an inhibition greater than 75% of the growth in primary cultures of metastatic nodules of a human malignant melanoma upon treatment in "vitro" with 2-iodomelatonin and 2-bromomelatonin and in primary cultures from different human melanomas, a growth inhibition has been obtained in 6 of 11 patients studied.

[19] = test system: primary cultures from different human melanomas; test: Growth inhibition in primary cultures from different human melanomas; assay type: cell-based
From the text: as §5

[20] = test system: B-16 melanoma; test: Lung metastasis and local tumor growth in mice implanted with B-16 melanoma; assay type: in vivo
From the text: (§6) The results obtained in our laboratories, however, have demonstered that 2-iodomelatonin and 2-bromomelatonin cause a reduction both in the number of the lung metastasis and of the local growth of tumors in mice inplanted with B-16 melanoma or MS-2 fibrosarcoma cells.

[21] = test system: MS-2 fibrosarcoma cells; test: Lung metastasis and local tumor growth in mice implanted with MS-2 fibrosarcoma cells; assay type: in vivo
From the text: as §6

[22] = test system: cellular membranes of melanoma; test: Binding to cellular membranes of melanoma
[23] = test system: cellular membranes of mammary gland cancer; test: Binding to cellular membranes of mammary gland cancer
[24] = test system: cellular membranes of cellular lines infected with oncogenic viruses; test: Binding to cellular membranes of cellular lines infected with oncogenic viruses
[25] = Acute toxicity in mice; conditions: mouse, in vivo, read-out: DL50 (the source's name)
Method: as §3
2) in mice per os and intraperitoneally: DL50 greater than 100 mg/Kg.

[26] = test system: human neoplastic cell lines; test: Oncostatic effects in vitro; assay type: cell-based
[27] = test system: tumors; test: Oncostatic effects in vivo
[28] = test system: cell cultures, neoplasms and hyperplasias; conditions: humans; cited from earlier work
[29] = test system: cell cultures, neoplasms and hyperplasias; conditions: laboratory animals; cited from earlier work

COc1ccc2[nH]cc(CCNC(C)=O)c2c1 [melatonin, reference compound]
estrogen receptor number [1]: temporarily caused an increase of the estrogen receptor number | binding [2]: high affinity, saturable and specific | binding affinity [3]: much lower | tumor arrest and regression [4]: arrest and partial regression of tumors | toxicity in hematic, biochemical, electrophoretic, organ, bone marrow and histological tests [5]: have not shown any particularly toxicity | LD50 at 336 h ([6]; ip, intraperitoneally, observation period 14 days, read-out: DL50): 462 mg/kg | LD50 ([6]; observation period 14 days): > 800 mg/kg | LD50 at 336 h [7]: 394 mg/kg | LD50 at 600 h [8]: > 192 mg/kg | dose required to express contraceptive action [9]: 100 to 200 mg | inhibition of stimulated dopamine release [10]: potent inhibitors of stimulated dopamine release in this organ, very much like melatonin

C#C[C@]1(O)CC[C@H]2[C@@H]3CCC4=CC(=O)CC[C@@H]4[C@H]3CC[C@@]21C [Norethisterone, norethisterone]
undesired pregnancies ([11]; mini-pill, alone): about 2.35%

C#C[C@]1(O)CC[C@H]2[C@@H]3CCC4=CC(=O)CC[C@@H]4[C@H]3CC[C@@]21CC [1-norgestrel]
contraceptive results compared with norethisterone mini-pill ([11]; reduced doses (0.08-0.16 mg)): better results

COc1ccc2[nH]c(I)c(CCNC(C)=O)c2c1 [2-iodomelatonin, N-acetyl-2-iodo-5-methoxytriptamine]
dose reduction relative to melatonin (times lower) [12]: five to ten | activity relative to that of melatonin (times higher) [13]: seven to ten | inhibition of the growth [14]: dose-dependant inhibition of the growth | inhibition of the growth [15]: dose-dependant inhibition of the growth | inhibition of the growth [16]: dose-dependant inhibition of the growth | inhibition of the growth [17]: dose-dependant inhibition of the growth; also recorded: inhibited the growth of the cellular lines MCF-7 in a dose dependant manner | inhibition of the growth [18]: greater than 75% | growth inhibition obtained (patients responding of patients studied) [19]: 6 of 11 | local growth of tumors [20]: reduction | number of the lung metastasis [20]: reduction | local growth of tumors [21]: reduction | number of the lung metastasis [21]: reduction | binding [2]: high affinity, saturable and specific | binding affinity [3]: much lower | tumor arrest and regression [4]: arrest and partial regression of tumors | binding to cellular membranes [22]: bind to the cellular membranes | binding to cellular membranes [23]: bind to the cellular membranes | binding to cellular membranes [24]: bind to the cellular membranes | toxicity in hematic, biochemical, electrophoretic, organ, bone marrow and histological tests [5]: have not shown any particularly toxicity | LD50 [6]: > 200 mg/kg | LD50 ([25]; ip, intraperitoneally): > 100 mg/kg | LD50 ([25]; po, per os): > 100 mg/kg | oncostatic effects [26]: Powerful oncostatic effects | oncostatic effects [27]: Powerful oncostatic effects | inhibition of stimulated dopamine release [10]: potent inhibitors

COc1ccc2[nH]c(Br)c(CCNC(C)=O)c2c1 [2-bromomelatonin, N-acetyl-2-bromo-5-methoxytriptamine]
dose reduction relative to melatonin (times lower) [12]: five to ten | activity relative to that of melatonin (times higher) [13]: seven to ten | inhibition of the growth [14]: dose-dependant inhibition of the growth | inhibition of the growth [15]: dose-dependant inhibition of the growth | inhibition of the growth [16]: dose-dependant inhibition of the growth | inhibition of the growth [17]: dose-dependant inhibition of the growth; also recorded: inhibited the growth of the cellular lines MCF-7 in a dose dependant manner | inhibition of the growth [18]: greater than 75% | growth inhibition obtained (patients responding of patients studied) [19]: 6 of 11 | local growth of tumors [20]: reduction | number of the lung metastasis [20]: reduction | local growth of tumors [21]: reduction | number of the lung metastasis [21]: reduction | binding [2]: high affinity, saturable and specific | binding affinity [3]: much lower | tumor arrest and regression [4]: arrest and partial regression of tumors | binding to cellular membranes [22]: bind to the cellular membranes | binding to cellular membranes [23]: bind to the cellular membranes | binding to cellular membranes [24]: bind to the cellular membranes | toxicity in hematic, biochemical, electrophoretic, organ, bone marrow and histological tests [5]: have not shown any particularly toxicity | LD50 [6]: > 200 mg/kg | LD50 ([25]; ip, intraperitoneally): > 100 mg/kg | LD50 ([25]; po, per os): > 100 mg/kg | oncostatic effects [26]: Powerful oncostatic effects | oncostatic effects [27]: Powerful oncostatic effects | inhibition of stimulated dopamine release [10]: potent inhibitors

COc1ccc2[nH]c([125I])c(CCNC(C)=O)c2c1 [2-(125I)-iodomelatonin]
binding [28]: specific and saturable binding | binding [29]: specific and saturable binding
